The supplement of paper PMC10307832

Experiments:
Assay in all cases: relative viability (nuclei count vs DMSO), 5 days (fraction); higher = more cells survive
NCI-H1944 = tested on: NCI-H1944
How it was run: (§1)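 Relative viability divides the nuclei count in treated wells by that in vehicle wells. Lung cancer cell lines were seeded in 1536-well plates, dosed by pin tool the next day, and fixed and stained after 5 days in one step with final 0.05% Triton X-100, 1% formaldehyde and 1 ug/ml Hoechst. Dosing was a single drug or a fixed anchor-drug dose plus five library-drug doses (not always all listed) in √10 steps, and values are medians of duplicate plates imaged at 4×.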

NCI-H1395 = tested on: NCI-H1395
How it was run: as §1

EPLC-272H = tested on: EPLC-272H
How it was run: as §1

NCI-H1437 = tested on: NCI-H1437
How it was run: as §1

HCC-15 = tested on: HCC-15
How it was run: as §1

HCC-44 = tested on: HCC-44
How it was run: as §1

HCC-78 = tested on: HCC-78
How it was run: as §1

NCI-H2405 = tested on: NCI-H2405
How it was run: as §1

HCC-827 = tested on: HCC-827
How it was run: as §1

NCI-H727 = tested on: NCI-H727
How it was run: as §1

NCI-H1792 = tested on: NCI-H1792
How it was run: as §1

NCI-H2085 = tested on: NCI-H2085
How it was run: as §1

HARA = tested on: HARA
How it was run: as §1

HCC-366 = tested on: HCC-366
How it was run: as §1

COR-L23 = tested on: COR-L23
How it was run: as §1

NCI-H1975 = tested on: NCI-H1975
How it was run: as §1

NCI-H2023 = tested on: NCI-H2023
How it was run: as §1

COR-L 105 = tested on: COR-L 105
How it was run: as §1

UMC-11 = tested on: UMC-11
How it was run: as §1

SK-LU-1 = tested on: SK-LU-1
How it was run: as §1

Work on `O=c1[nH]c2ccccc2n1C1CCN(CCCC(c2ccc(F)cc2)c2ccc(F)cc2)CC1` [Pimozide] + CC1(C)CCC(c2ccc(Cl)cc2)=C(CN2CCN(c3ccc(C(=O)NS(=O)(=O)c4ccc(N[C@H](CCN5CCOCC5)CSc5ccccc5)c(S(=O)(=O)C(F)(F)F)c4)cc3)CC2)C1 [Navitoclax] (partner 0.5 µM) yielded a relative viability (NCI-H1944; first compound 0.08 µM) of 0.945, a relative viability (NCI-H1944; first compound 0.253 µM) of 1.05 and a relative viability (NCI-H1944; first compound 0.8 µM) of 0.926. The relative viability (NCI-H1944; first compound 2.53 µM) was 1.03, the relative viability (NCI-H1944; first compound 8 µM) was 0.995 and the relative viability (NCI-H1395; first compound 0.08 µM) was 1.08. It also gave a relative viability (NCI-H1395; first compound 0.253 µM) of 1.15, a relative viability (NCI-H1395; first compound 0.8 µM) of 1.34 and a relative viability (NCI-H1395; first compound 2.53 µM) of 1.1. For the same compound, the relative viability (NCI-H1395; first compound 8 µM) was 1.3, the relative viability (EPLC-272H; first compound 0.08 µM) was 0.979 and the relative viability (EPLC-272H; first compound 0.253 µM) was 1.16. For the same compound, the relative viability (EPLC-272H; first compound 0.8 µM) was 1.13, the relative viability (EPLC-272H; first compound 2.53 µM) was 1.03 and the relative viability (EPLC-272H; first compound 8 µM) was 0.967. For the same compound, the relative viability (NCI-H1437; first compound 0.08 µM) was 1.07, the relative viability (NCI-H1437; first compound 0.253 µM) was 1.06 and the relative viability (NCI-H1437; first compound 0.8 µM) was 1.06. For the same compound, the relative viability (NCI-H1437; first compound 2.53 µM) was 0.993, the relative viability (NCI-H1437; first compound 8 µM) was 0.81 and the relative viability (HCC-15; first compound 0.08 µM) was 0.797. For the same compound, the relative viability (HCC-15; first compound 0.253 µM) was 0.724, the relative viability (HCC-15; first compound 0.8 µM) was 0.66 and the relative viability (HCC-15; first compound 2.53 µM) was 0.636. It also gave a relative viability (HCC-15; first compound 8 µM) of 0.621, a relative viability (HCC-44; first compound 0.08 µM) of 0.965 and a relative viability (HCC-44; first compound 0.253 µM) of 1. The relative viability (HCC-44; first compound 0.8 µM) was 0.95, the relative viability (HCC-44; first compound 2.53 µM) was 0.884 and the relative viability (HCC-44; first compound 8 µM) was 0.971. For the same compound, the relative viability (HCC-78; first compound 0.08 µM) was 0.764, the relative viability (HCC-78; first compound 0.253 µM) was 0.717 and the relative viability (HCC-78; first compound 0.8 µM) was 0.893. For the same compound, the relative viability (HCC-78; first compound 2.53 µM) was 0.71, the relative viability (HCC-78; first compound 8 µM) was 0.691 and the relative viability (NCI-H2405; first compound 0.08 µM) was 0.795. For the same compound, the relative viability (NCI-H2405; first compound 0.253 µM) was 0.716, the relative viability (NCI-H2405; first compound 0.8 µM) was 0.89 and the relative viability (NCI-H2405; first compound 2.53 µM) was 0.801. The relative viability (NCI-H2405; first compound 8 µM) was 0.637, the relative viability (HCC-827; first compound 0.253 µM) was 1.03 and the relative viability (HCC-827; first compound 0.8 µM) was 0.897. The relative viability (HCC-827; first compound 2.53 µM) was 0.999, the relative viability (HCC-827; first compound 8 µM) was 0.981 and the relative viability (NCI-H727; first compound 0.08 µM) was 0.415. The relative viability (NCI-H727; first compound 0.253 µM) was 0.421, the relative viability (NCI-H727; first compound 0.8 µM) was 0.409 and the relative viability (NCI-H727; first compound 2.53 µM) was 0.409. The relative viability (NCI-H727; first compound 8 µM) was 0.379, the relative viability (NCI-H1792; first compound 0.08 µM) was 0.647 and the relative viability (NCI-H1792; first compound 0.253 µM) was 0.629. It also gave a relative viability (NCI-H1792; first compound 0.8 µM) of 0.619, a relative viability (NCI-H1792; first compound 2.53 µM) of 0.599 and a relative viability (NCI-H1792; first compound 8 µM) of 0.649. The relative viability (NCI-H2085; first compound 0.08 µM) was 1.15, the relative viability (NCI-H2085; first compound 0.253 µM) was 1.15 and the relative viability (NCI-H2085; first compound 0.8 µM) was 1.11. For the same compound, the relative viability (NCI-H2085; first compound 2.53 µM) was 1.04, the relative viability (NCI-H2085; first compound 8 µM) was 1.06 and the relative viability (HARA; first compound 0.08 µM) was 1.11. The relative viability (HARA; first compound 0.253 µM) was 1.18, the relative viability (HARA; first compound 0.8 µM) was 1.1 and the relative viability (HARA; first compound 2.53 µM) was 1.12. For the same compound, the relative viability (HARA; first compound 8 µM) was 1.14, the relative viability (HCC-366; first compound 0.08 µM) was 1.01 and the relative viability (HCC-366; first compound 0.253 µM) was 1.12. For the same compound, the relative viability (HCC-366; first compound 0.8 µM) was 1.02, the relative viability (HCC-366; first compound 2.53 µM) was 0.986 and the relative viability (HCC-366; first compound 8 µM) was 0.976. The relative viability (COR-L23; first compound 0.08 µM) was 1.02, the relative viability (COR-L23; first compound 0.253 µM) was 0.923 and the relative viability (COR-L23; first compound 0.8 µM) was 0.913. It also gave a relative viability (COR-L23; first compound 2.53 µM) of 1.14, a relative viability (COR-L23; first compound 8 µM) of 0.933 and a relative viability (NCI-H1975; first compound 0.08 µM) of 1.22. For the same compound, the relative viability (NCI-H1975; first compound 0.253 µM) was 1.06, the relative viability (NCI-H1975; first compound 0.8 µM) was 1.08 and the relative viability (NCI-H1975; first compound 2.53 µM) was 1.16. It also gave a relative viability (NCI-H1975; first compound 8 µM) of 0.992, a relative viability (NCI-H2023; first compound 0.08 µM) of 1.03 and a relative viability (NCI-H2023; first compound 0.253 µM) of 1.03. The relative viability (NCI-H2023; first compound 0.8 µM) was 0.988, the relative viability (NCI-H2023; first compound 2.53 µM) was 0.957 and the relative viability (NCI-H2023; first compound 8 µM) was 0.832. The relative viability (COR-L 105; first compound 0.253 µM) was 0.601, the relative viability (COR-L 105; first compound 0.8 µM) was 0.618 and the relative viability (COR-L 105; first compound 2.53 µM) was 0.816. It also gave a relative viability (COR-L 105; first compound 8 µM) of 0.645, a relative viability (UMC-11; first compound 0.08 µM) of 0.33 and a relative viability (UMC-11; first compound 0.253 µM) of 0.318. The relative viability (UMC-11; first compound 0.8 µM) was 0.293, the relative viability (UMC-11; first compound 2.53 µM) was 0.286 and the relative viability (UMC-11; first compound 8 µM) was 0.239. The relative viability (SK-LU-1; first compound 0.08 µM) was 1.09, the relative viability (SK-LU-1; first compound 0.253 µM) was 0.815 and the relative viability (SK-LU-1; first compound 0.8 µM) was 0.804. It also gave a relative viability (SK-LU-1; first compound 2.53 µM) of 0.76 and a relative viability (SK-LU-1; first compound 8 µM) of 0.809.
